ChEMBL document CHEMBL6074631, “Design, synthesis, and evaluation of pyranochromene derivatives as membrane targeting antibacterials against Gram-positive bacteria” (Bioorg Med Chem Lett, 2024)
In brackets after ≈: the same amount, converted by molar mass. Activity calls are given as the source filed them. The rule behind the calls is not given here.

What was measured:
Pseudomonas aeruginosa = assay: Antibacterial activity against penicillin-susceptible Pseudomonas aeruginosa ATCC27853 assessed as reduction in bacterial growth by broth microdilution assay; format: functional
Staphylococcus aureus [1] = assay: Antibacterial activity against […] Staphylococcus aureus ATCC43300 assessed as reduction in bacterial growth by broth microdilution assay; format: functional
Staphylococcus aureus [2] = assay: Antibacterial activity against Staphylococcus aureus ATCC25923 assessed as reduction in bacterial growth by broth microdilution assay; format: functional
Acinetobacter baumannii = assay: Antibacterial activity against Acinetobacter baumannii ATCC19606 assessed as reduction in bacterial growth by broth microdilution assay; format: functional
[3] = tested on: Staphylococcus epidermidis; assay: Antibacterial activity against vancomycin-susceptible Staphylococcus epidermidis ATCC12228 assessed as reduction in bacterial growth by broth microdilution assay; format: functional
Bacillus subtilis = assay: Antibacterial activity against […] Bacillus subtilis ATCC9372 assessed as reduction in bacterial growth by broth microdilution assay; format: functional
Escherichia coli = assay: Antibacterial activity against Escherichia coli ATCC25922 assessed as reduction in bacterial growth by broth microdilution assay; format: functional
Klebsiella pneumoniae = assay: Antibacterial activity against erythromycin-susceptible Klebsiella pneumoniae ATCC10031 assessed as reduction in bacterial growth by broth microdilution assay; format: functional
Enterococcus faecalis = assay: Antibacterial activity against penicillin-susceptible Enterococcus faecalis ATCC29212 assessed as reduction in bacterial growth by broth microdilution assay; format: functional
Staphylococcus aureus [4] = assay: Antibacterial activity against Staphylococcus aureus ATCC31007 assessed as reduction in bacterial growth by broth microdilution assay; format: functional
Cell membrane [5] = assay: Disruption of cell membrane integrity in Staphylococcus aureus ATCC43300 assessed as blue fluorescence by DAPI staining based fluorescence assay; format: subcellular
Cell membrane [6] = assay: Disruption of cell membrane integrity in Staphylococcus aureus ATCC43300 assessed as red fluorescence by DAPI staining based fluorescence assay; format: subcellular
[7] = Hemolytic activity in RBC (unknown origin) assessed as hemolysis; format: toxicity, cell-based

| Compound | MIC (Pseudomonas aeruginosa) [µg/mL] | MIC (Staphylococcus aureus [1]) [µg/mL] | MIC (Staphylococcus aureus [2]) [µg/mL] | MIC (Acinetobacter baumannii) [µg/mL] | MIC [3] [µg/mL] | MIC (Bacillus subtilis) [µg/mL] | MIC (Escherichia coli) [µg/mL] | MIC (Klebsiella pneumoniae) [µg/mL] | MIC (Enterococcus faecalis) [µg/mL] | MIC (Staphylococcus aureus [4]) [µg/mL] | Activity (Cell membrane [5]) | Activity (Cell membrane [6]) | HC90 ([7]; rbc) [µg/mL] | HC50 ([7]; red blood cells) [µg/mL] |
| --- | --- | --- | --- | --- | --- | --- | --- | --- | --- | --- | --- | --- | --- | --- |
| COc1c2c(c3c(c1C(=O)/C=C/c1ccc(OCCC[N+](C)(C)CCCN)cc1)OC(C)(CCC=C(C)C)C=C3)OC(C)(CCC=C(C)C)C=C2 (stereo not given) | > 128 | 32 | 16 | > 128 | 4 | 8 | > 128 | > 128 | > 128 | 8 |  |  |  |  |
| COc1c2c(c3c(c1C(=O)/C=C/c1ccc(OCCCNCCCN4CCN(C)CC4)cc1)OC(C)(CCC=C(C)C)C=C3)OC(C)(CCC=C(C)C)C=C2 (stereo not given) | > 128 | 8 (≈ 10.6 µM) | 4 (≈ 5.32 µM) | > 128 | 4 (≈ 5.32 µM) | 4 (≈ 5.32 µM) | > 128 | > 128 | 8 (≈ 10.6 µM) | 4 (≈ 5.32 µM) |  |  |  |  |
| COc1c2c(c3c(c1C(=O)/C=C/c1ccc(OCCCN(C)CCCN(C)C)cc1)OC(C)(CCC=C(C)C)C=C3)OC(C)(CCC=C(C)C)C=C2 (stereo not given) | > 128 | > 128 | > 128 | > 128 | 2 (≈ 2.81 µM) | > 128 | > 128 | > 128 | 16 (≈ 22.5 µM) | > 128 |  |  |  |  |
| COc1c2c(c3c(c1C(=O)/C=C/c1ccc(OCCC[N+](C)(C)CCCN(C)C)cc1)OC(C)(CCC=C(C)C)C=C3)OC(C)(CCC=C(C)C)C=C2 (stereo not given) | > 128 | 16 | 4 | 32 | 2 | 4 | > 128 | > 128 | 16 | 32 |  |  |  |  |
| COc1c2c(c3c(c1C(=O)/C=C/c1ccc(OCCCN(CCCN(C)C)CCCN(C)C)cc1)OC(C)(CCC=C(C)C)C=C3)OC(C)(CCC=C(C)C)C=C2 (stereo not given) | > 128 | 8 (≈ 10.2 µM) | 8 (≈ 10.2 µM) | > 128 | 2 (≈ 2.56 µM) | 8 (≈ 10.2 µM) | > 128 | > 128 | 8 (≈ 10.2 µM) | 8 (≈ 10.2 µM) |  |  |  |  |
| CCCCN(CCCC)CCCNC(=O)COc1c2c(c3c(c1C(C)=O)OC(C)(CCC=C(C)C)C=C3)OC(C)(CCC=C(C)C)C=C2 (stereo not given) | > 128 | 8 (≈ 12.1 µM) | 4 (≈ 6.03 µM) | > 128 | 4 (≈ 6.03 µM) | 8 (≈ 12.1 µM) | > 128 | > 128 | 4 (≈ 6.03 µM) | 4 (≈ 6.03 µM) |  |  |  |  |
| CC[N+](CC)(CC)CCCOc1ccc(/C=C/C(=O)c2c(OC)c3c(c4c2OC(C)(CCC=C(C)C)C=C4)OC(C)(CCC=C(C)C)C=C3)cc1 (stereo not given) | > 128 | > 128 | 64 | > 128 | 4 | 64 | > 128 | > 128 | 32 | 64 |  |  |  |  |
| CC(=O)c1c(OCC(=O)N(C)CCCN(C)C)c2c(c3c1OC(C)(CCC=C(C)C)C=C3)OC(C)(CCC=C(C)C)C=C2 (stereo not given) | 128 (≈ 216 µM) | 4 (≈ 6.75 µM) | 4 (≈ 6.75 µM) | 128 (≈ 216 µM) | 2 (≈ 3.37 µM) | 2 (≈ 3.37 µM) | > 128 | > 128 | 2 (≈ 3.37 µM) | 4 (≈ 6.75 µM) |  |  |  |  |
| CCNCCCOc1ccc(/C=C/C(=O)c2c(OC)c3c(c4c2OC(C)(CCC=C(C)C)C=C4)OC(C)(CCC=C(C)C)C=C3)cc1 (stereo not given) | 128 (≈ 200 µM) | > 128 | > 128 | 128 (≈ 200 µM) | > 128 | 128 (≈ 200 µM) | > 128 | > 128 | > 128 | > 128 |  |  |  |  |
| CN[C@H](CC(C)C)C(=O)N[C@H]1C(=O)N[C@@H](CC(N)=O)C(=O)N[C@H]2C(=O)N[C@H]3C(=O)N[C@H](C(=O)N[C@H](C(=O)O)c4cc(O)cc(O)c4-c4cc3ccc4O)[C@H](O)c3ccc(c(Cl)c3)Oc3cc2cc(c3O[C@@H]2O[C@H](CO)[C@@H](O)[C@H](O)[C@H]2O[C@H]2C[C@](C)(N)[C@H](O)[C@H](C)O2)Oc2ccc(cc2Cl)[C@H]1O [VANCOMYCIN] | > 128 |  |  | 16 (≈ 11 µM) |  | 0.5 (≈ 0.345 µM) | 128 (≈ 88.3 µM) | 128 (≈ 88.3 µM) | 2 (≈ 1.38 µM) |  |  |  |  |  |
| CC[C@H](C)[C@H](NC(=O)CN)C(=O)NCC(=O)N[C@@H](C)C(=O)N[C@H](C(=O)N[C@@H](CC(C)C)C(=O)N[C@@H](CCCCN)C(=O)N[C@H](C(=O)N[C@@H](CC(C)C)C(=O)N[C@H](C(=O)N[C@H](C(=O)NCC(=O)N[C@@H](CC(C)C)C(=O)N1CCC[C@H]1C(=O)N[C@@H](C)C(=O)N[C@@H](CC(C)C)C(=O)N[C@H](C(=O)N[C@@H](CO)C(=O)N[C@@H](Cc1c[nH]c2ccccc12)C(=O)N[C@H](C(=O)N[C@@H](CCCCN)C(=O)N[C@@H](CCCNC(=N)N)C(=O)N[C@@H](CCCCN)C(=O)N[C@@H](CCCNC(=N)N)C(=O)N[C@@H](CCC(N)=O)C(=O)N[C@@H](CCC(N)=O)C(N)=O)[C@@H](C)CC)[C@@H](C)CC)[C@@H](C)O)[C@@H](C)O)C(C)C)C(C)C |  |  |  |  |  |  |  |  |  |  | Active | Active |  |  |
| CC(=O)c1c(OCC(=O)NCCCN2CCCC2)c2c(c3c1OC(C)(CCC=C(C)C)C=C3)OC(C)(CCC=C(C)C)C=C2 (stereo not given) | > 128 | 4 (≈ 6.61 µM) | 4 (≈ 6.61 µM) | 128 (≈ 212 µM) | 8 (≈ 13.2 µM) | 16 (≈ 26.5 µM) | > 128 | > 128 | 8 (≈ 13.2 µM) | 4 (≈ 6.61 µM) |  |  |  |  |
| CCN(CC)CCCNC(=O)COc1c2c(c3c(c1C(C)=O)OC(C)(CCC=C(C)C)C=C3)OC(C)(CCC=C(C)C)C=C2 (stereo not given) | 128 (≈ 211 µM) | 4 (≈ 6.59 µM) | 4 (≈ 6.59 µM) | > 128 | 2 (≈ 3.3 µM) | 2 (≈ 3.3 µM) | > 128 | > 128 | 2 (≈ 3.3 µM) | 4 (≈ 6.59 µM) |  |  |  |  |
| CC(=O)c1c(OCC(=O)NCCCN2CCN(C)CC2)c2c(c3c1OC(C)(CCC=C(C)C)C=C3)OC(C)(CCC=C(C)C)C=C2 (stereo not given) | > 128 | 4 (≈ 6.31 µM) | 2 (≈ 3.16 µM) | 128 (≈ 202 µM) | 1 (≈ 1.58 µM) | 2 (≈ 3.16 µM) | > 128 | > 128 | 0.5 (≈ 0.789 µM) | 2 (≈ 3.16 µM) |  |  | 137.3 | 46 |
| CNCCN(C)C(=O)COc1c2c(c3c(c1C(C)=O)OC(C)(CCC=C(C)C)C=C3)OC(C)(CCC=C(C)C)C=C2 (stereo not given) | 128 (≈ 227 µM) | 4 (≈ 7.08 µM) | 4 (≈ 7.08 µM) | 128 (≈ 227 µM) | 4 (≈ 7.08 µM) | 16 (≈ 28.3 µM) | > 128 | 128 (≈ 227 µM) | 8 (≈ 14.2 µM) | 4 (≈ 7.08 µM) |  |  |  |  |
| CCN(CC)CCCNCCCOc1ccc(/C=C/C(=O)c2c(OC)c3c(c4c2OC(C)(CCC=C(C)C)C=C4)OC(C)(CCC=C(C)C)C=C3)cc1 (stereo not given) | > 128 | 16 (≈ 22.1 µM) | 16 (≈ 22.1 µM) | > 128 | 4 (≈ 5.52 µM) | 8 (≈ 11 µM) | > 128 | > 128 | 32 (≈ 44.1 µM) | 32 (≈ 44.1 µM) |  |  |  |  |
| COc1c2c(c3c(c1C(=O)/C=C/c1ccc(OCCCN4CCSCC4)cc1)OC(C)(CCC=C(C)C)C=C3)OC(C)(CCC=C(C)C)C=C2 (stereo not given) | > 128 | > 128 | > 128 | > 128 | > 128 | > 128 | > 128 | > 128 | > 128 | > 128 |  |  |  |  |
| COc1c2c(c3c(c1C(=O)/C=C/c1ccc(OCCCN4CCOCC4)cc1)OC(C)(CCC=C(C)C)C=C3)OC(C)(CCC=C(C)C)C=C2 (stereo not given) | > 128 | > 128 | > 128 | > 128 | > 128 | > 128 | > 128 | > 128 | > 128 | > 128 |  |  |  |  |
